SMILES strings stand for the structures. A value given as a limit tells only on which side of the number the result lay.

The assay concerns Wnt signaling. Put plainly: Wnt-Luc reporter assay for pathway inhibition of Wnt signaling. Format: cell-based, Mouse (TM3 Wnt-Luc cells) or Human (293 Wnt-Luc cells). The note with it: 24 h, Wnt-Luc reporter cells co-cultured with L-cell Wnt3a cells, luciferase luminescence reduced by 50%. From the text:
The exemplified compounds of the invention are summarized in Table 1, with IC50 values measured using Wnt-Luc reporter assays.
(In a reporter assay the amount or activity of a reporter protein is the signal.)

Turning to `Cc1cc(-c2ccc(CC(=O)Nc3ccc(-c4ccccc4)nc3)cc2)ccn1` [compound 36], the IC50 was less than 0.11 nM.
For `Cc1cc(-c2ccc(CC(=O)Nc3ccc(-c4ccccc4)cn3)cc2)ccn1` [Cpd 26] the value was less than 0.4 nM; for `Cc1cc(CC(=O)Nc2ccc(-c3cccc(F)c3)cn2)cnc1-c1ccnnc1` [Cpd 74], less than 0.1 nM; for `Cc1cc(-c2ccc(CC(=O)Nc3ccc(-c4cccnc4)cc3)cc2)ccn1` [compound 59], less than 0.11 nM.
Regarding `Cc1cc(-c2ncc(CC(=O)Nc3ccc(-c4cnccn4)cn3)cc2C)ccn1` [Cpd 86], inhibition was half-maximal at 0.38 nM (IC50).
For `Cc1cc(-c2ccc(CC(=O)Nc3ccc(-c4cccc(F)c4)cn3)cc2)ccn1` [compound 56] the value was less than 0.09 nM.
Then `Cc1cc(-c2ccc(CC(=O)Nc3ccc(-c4ccccc4)cn3)cn2)ccn1` [compound 51], with less than 0.14 nM.

What is called IC50 is the concentration that gives 50% inhibition. Low values mean greater potency, high ones weaker potency.
